Experimental data published in patent US20220177446A1, “ALKYNE COMPOUNDS AS IRAK INHIBITORS, PREPARATION METHODS AND MEDICINAL USES THEREOF” (Eternity Bioscience Inc., priority 2020, published 2022).
Like-named read-outs stand apart in the source and are kept apart here.

Experiments:
[1] = biological target: T1, full length human IRAK4 protein (Homo sapiens, UniProt Q9NWZ3); test: IRAK4 Biochemical Assay (Promega ADP-Glo IRAK4 Kinase Enzyme System); conditions: 3 nM enzyme, 250 μM ATP; for IC50: 2 μM MBP, 60 min at room temperature; for IRAK4 Biochemical Assay Max Inhibition (%): maximum inhibition
T1 construct: Purified full length human IRAK4 protein; purchased Signal Chem I12-10G-125
T1 sequence (Q9NWZ3 1-460): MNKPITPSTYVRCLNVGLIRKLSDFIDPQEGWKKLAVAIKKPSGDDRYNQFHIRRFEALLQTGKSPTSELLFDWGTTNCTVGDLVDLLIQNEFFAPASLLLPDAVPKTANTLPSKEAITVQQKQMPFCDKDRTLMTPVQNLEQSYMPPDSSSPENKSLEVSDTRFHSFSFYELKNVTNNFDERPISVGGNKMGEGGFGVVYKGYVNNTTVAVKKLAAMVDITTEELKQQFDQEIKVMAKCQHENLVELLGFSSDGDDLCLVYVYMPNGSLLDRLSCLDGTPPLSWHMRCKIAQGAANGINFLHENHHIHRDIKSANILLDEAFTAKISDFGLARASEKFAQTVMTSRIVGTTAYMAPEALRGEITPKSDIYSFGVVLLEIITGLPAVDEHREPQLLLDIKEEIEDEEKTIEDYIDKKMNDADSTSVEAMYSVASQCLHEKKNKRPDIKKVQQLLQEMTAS
Experimental: For the routine compound screening, an IRAK4 kinase assay was performed as follows using Promega ADP-Glo IRAK4 Kinase Enzyme System (Promega, Cat #2198-AD). Purified full length human IRAK4 protein (Signal Chem; Cat #I12-10G-125) was diluted to a concentration 6 nM in assay buffer (25 mM MOPS, pH 7.2, 12.5 mM β-glycerol-phosphate, 25 mM MgCl2, 5 mM EGTA, 2 mM EDTA, 0.0025% Brij-35, add 0.25 mM DTT to Kinase Assay Buffer prior to use) containing IRAK4 inhibitor at 2× the final concentration in 0.4% DMSO. The reaction was performed in PerkinElmer Proxiplate-384 plus white plate (Fisher Scientific, Cat #50-905-2761) and started by the addition of an equal volume of the assay buffer containing 4 μM native swine myelin basic protein (MBP) and 500 μM ATP to achieve a final concentration of 3 nM enzyme, 2 μM MBP, 250 μM ATP, 1× compound, and 0.2% DMSO. The kinase reaction was allowed to run for 60 min at room temperature (25-27° C.), then 5 μL of ADP-Glo was added to the reaction in each well followed by 40 minutes-incubation at RT. To detect converted […], 10 μL Detection Buffer was added into each well and Incubate at RT in dark for 30 minutes. Finally, luminescence was read using Tecan with 1000 ms of integration time. The luminescent signal positively correlates with ADP amount and kinase activity. Data was analyzed by GraphPad Prism and IC50 was calculated using function log(inhibitor) vs. response—Variable slope (four parameters). Percentage of inhibition was calculated as below:
(§1) % inhibition=(1−(Reading(Sample)−Reading(Negative Control))/(Reading(Positive Control)−Reading(Negative Control)))×100%
The 0% inhibition value comes from the Reading of Positive Control wells having 0 nM compound. The 100% inhibition value comes from the Reading of Negative Control wells having no IRAK4 kinase.

IRAK4 = biological target: T2, IRAK4 (Homo sapiens, UniProt Q9NWZ3); test: IRAK4 Human PBMC TNFα Cell Based Assay (AlphaLISA); conditions: TNFα measured
T2 construct: host or cells: human peripheral blood mononuclear cells (PBMCs)
T2 sequence (Q9NWZ3 1-460): T1 sequence (Q9NWZ3 1-460)
Experimental: In this assay, serially diluted compounds were incubated with 1×10^4 human peripheral blood mononuclear cells (PBMCs) from STEMCELL (Cat #70025.1) per well of 384-well plate (Fisher Scientific; 50-905-2761) and cultured with TexMACS medium (Miltenyi, Cat #130-097-196), stimulated by R848 (0.5 μM) or IL-1β (10 ng/ml). Plates were covered with lids and incubated for 4 h (R848, Fisher Scientific, Cat #NC9801605) or 24 h (IL-1β, Fisher Scientific, Cat #ENRIL1BI) at 37° C. in a humidified tissue-culture incubator. After a brief centrifugation at 1000 rpm for 5 minutes, 5 μl of culture medium was used for the measurement of the TNFα amount using TNFα (human) AlphaLISA Detection Kit (PerkinElmer, Cat #AL208C) according to manufacturer's protocol. A biotinylated anti-TNFα antibody binds to the Streptavidin-coated Donor beads while another anti-TNFα antibody is conjugated to AlphaLISA Acceptor beads. In the presence of the TNFα, the beads come into close proximity. The excitation of the Donor beads causes the release of singlet oxygen molecules that triggers a cascade of energy transfer in the Acceptor beads, resulting in a sharp peak of light emission at 615 nm. AlphaLISA assay plates were read using PHERAstar. Percentage of inhibition was calculated as below:
as §1
The 0% inhibition value comes from the Reading of Positive Control wells having 0 nM compound. The 100% inhibition value comes from the Reading of Negative Control wells having no R848 or IL-1β.

[2] = human PBMCs stimulated by IL-1β (10 ng/ml), 24 h, read-out: IRAK4 PBMC AlphaLISA IL-1β (IC50)
[3] = human PBMCs stimulated by R848 (0.5 μM), 4 h, read-out: IRAK4 PBMC AlphaLISA R848 (IC50)

| SMILES | IC50 [1] [nM] | IRAK4 Biochemical Assay Max Inhibition (%) [1] [%] | IC50 (IRAK4; [2]) [nM] | IC50 (IRAK4; [3]) [nM] |
| --- | --- | --- | --- | --- |
| CC[C@@H]1[C@H](F)C(=O)N[C@@H]1COc1ncc(C#CCOC)c2cc(C(N)=O)c(OC(C)C)cc12 [Example 25, 1-(((2S,3S,4S)-3-ethyl-4-fluoro-5-oxopyrrolidin-2-yl)methoxy)-7-isopropoxy-4-(3-methoxyprop-1-yn-1-yl)isoquinoline-6-carboxamide] | 27 | 103.0 | 3.9 | 5 |
| CC[C@@H]1[C@H](F)C(=O)N[C@@H]1COc1ncc(C#CC(C)(C)O)c2cc(C(N)=O)c(OC(C)C)cc12 [Example 29, 1-(((2S,3S,4S)-3-ethyl-4-fluoro-5-oxopyrrolidin-2-yl)methoxy)-4-(3-hydroxyl-3-methylbut-1-yn-1-yl)-7-isopropoxyisoquinoline-6-carboxamide] | 26 | 100.0 | 3.5 | 6.7 |
| CC[C@@H]1[C@H](F)C(=O)N[C@@H]1COc1ccc(C#CC(C)(C)O)c2cc(C(N)=O)c(OC)cc12 [Example 31, 5-(((2S,3S,4S)-3-ethyl-4-fluoro-5-oxopyrrolidin-2-yl)methoxy)-8-(3-hydroxyl-3-methylbut-1-yn-1-yl)-3-methoxy-2-naphthamide] | 32 | 95.0 | 5.6 | 8.3 |
| CC[C@@H]1[C@H](F)C(=O)N[C@@H]1COc1ccc(C#CC(C)(C)N(C)C)c2cc(C(N)=O)c(OC)cc12 [Example 33, 8-(3-(dimethylamino)-3-methylbut-1-yn-1-yl)-5-(((2S,3S,4S)-3-ethyl-4-fluoro-5-oxopyrrolidin-2-yl)methoxy)-3-methoxy-2-naphthamide] | 13 | 99.0 | 41 | 25 |
| CC[C@@H]1[C@H](F)C(=O)N[C@@H]1COc1ncc(C#CC(C)(C)N(C)C)c2cc(C(N)=O)c(OC)cc12 [Example 34, 4-(3-(dimethylamino)-3-methylbut-1-yn-1-yl)-1-(((2S,3S,4S)-3-ethyl-4-fluoro-5-oxopyrrolidin-2-yl)methoxy)-7-methoxyisoquinoline-6-carboxamide] | 8.9 | 92.0 | 46 | 32 |
| CC[C@@H]1[C@H](F)C(=O)N[C@@H]1COc1ncc(C#CC(C)(C)N(C)C)c2cc(C(N)=O)c(OC(C)C)cc12 [Example 35, 4-(3-(dimethylamino)-3-methylbut-1-yn-1-yl)-1-(((2S,3S,4S)-3-ethyl-4-fluoro-5-oxopyrrolidin-2-yl)methoxy)-7-isopropoxyisoquinoline-6-carboxamide] | 39 | 93.0 | 110 | 36 |

The remaining lines, values ahead:

| IC50 [1] [nM] | IRAK4 Biochemical Assay Max Inhibition (%) [1] [%] | IC50 (IRAK4; [2]) [nM] | IC50 (IRAK4; [3]) [nM] | SMILES |
| --- | --- | --- | --- | --- |
| 13 | 100.0 | 1.3 | 3 | CC[C@@H]1[C@H](F)C(=O)N[C@@H]1COc1ncc(C#C[C@@H](C)O)c2cc(C(N)=O)c(OC)cc12 [Example 19, 1-(((2S,3S,4S)-3-ethyl-4-fluoro-5-oxopyrrolidin-2-yl)methoxy)-4-((R)-3-hydroxybut-1-yn-1-yl)-7-methoxyisoquinoline-6-carboxamide] |
| 22 | 100.0 | 1.7 | 3 | CC[C@@H]1[C@H](F)C(=O)N[C@@H]1COc1ncc(C#Cc2cn[nH]c2)c2cc(C(N)=O)c(OC)cc12 [Example 20, 4-((1H-pyrazol-4-yl)ethynyl)-1-(((2S,3S,4S)-3-ethyl-4-fluoro-5-oxopyrrolidin-2-yl)methoxy)-7-methoxyisoquinoline-6-carboxamide] |
| 22 | 98.0 | 4.6 | 3.1 | CC[C@@H]1[C@H](F)C(=O)N[C@@H]1COc1ncc(C#Cc2nnn(C)n2)c2cc(C(N)=O)c(OC)cc12 [Example 21, 1-(((2S,3S,4S)-3-ethyl-4-fluoro-5-oxopyrrolidin-2-yl)methoxy)-7-methoxy-4-((2-methyl-2H-tetrazol-5-yl)ethynyl)isoquinoline-6-carboxamide] |
| 23 | 100.0 | 0.8 | 3.4 | CC[C@@H]1[C@H](F)C(=O)N[C@@H]1COc1ncc(C#Cc2ccncc2)c2cc(C(N)=O)c(OC)cc12 [Example 22, 1-(((2S,3S,4S)-3-ethyl-4-fluoro-5-oxopyrrolidin-2-yl)methoxy)-7-methoxy-4-(pyridin-4-ylethynyl)isoquinoline-6-carboxamide] |
| 24 | 100.0 | 1.8 | 5.3 | CC[C@@H]1[C@H](F)C(=O)N[C@@H]1COc1ncc(C#Cc2ccccc2)c2cc(C(N)=O)c(OC)cc12 [Example 27, 1-(((2S,3S,4S)-3-ethyl-4-fluoro-5-oxopyrrolidin-2-yl)methoxy)-7-methoxy-4-(phenylethynyl)isoquinoline-6-carboxamide] |
| 37 | 100.0 | 9.2 | 5.5 | CC[C@@H]1[C@H](F)C(=O)N[C@@H]1COc1ncc(C#CC(C)(C)OC)c2cc(C(N)=O)c(OC)cc12 [Example 28, 1-(((2S,3S,4S)-3-ethyl-4-fluoro-5-oxopyrrolidin-2-yl)methoxy)-7-methoxy-4-(3-methoxy-3-methylbut-1-yn-1-yl)isoquinoline-6-carboxamide] |
| 45 | 99.0 | 17 | 11 | CC[C@@H]1[C@H](F)C(=O)N[C@@H]1COc1ncc(C#CC(C)(C)C)c2cc(C(N)=O)c(OC)cc12 [Example 32, 4-(3,3-dimethylbut-1-yn-1-yl)-1-(((2S,3S,4S)-3-ethyl-4-fluoro-5-oxopyrrolidin-2-yl)methoxy)-7-methoxyisoquinoline-6-carboxamide] |
